# From ChEMBL document CHEMBL6177997, “Design, Synthesis, and Evaluation of Novel ROCK Inhibitors for Glaucoma Treatment: Insights into In Vitro and In Vivo Efficacy and Safety” (J Med Chem, 2025)
# Calls of active or inactive are those of the source. The calls are words filed in the database; no cut-off is given here.
# Key:
# [1] = biological target: MAP kinase-interacting serine/threonine-protein kinase 2 (Homo sapiens) (UniProt Q9HBH9); assay: Inhibition of MNK2 (unknown origin) at 5 uM preincubated for 10 mins followed by substrate addition and measured after 60 mins by ADP-glo kinase assay relative to control; settings: time 70.0 min
# [2] = biological target: Rho-associated protein kinase 2 (Homo sapiens, UniProt O75116); assay: Inhibition of ROCK2 (unknown origin) incubated for 40 mins in presence of ATP by ADP-glo assay
# [3] = biological target: Rho-associated protein kinase 1 (Homo sapiens, UniProt Q13464); assay: Inhibition of ROCK1 (unknown origin) incubated for 40 mins in presence of ATP by ADP-glo assay
# [4] = biological target: MAP kinase-interacting serine/threonine-protein kinase 1 (Homo sapiens, UniProt Q9BUB5); assay: Inhibition of MNK1 (unknown origin) at 5 uM preincubated for 10 mins followed by substrate addition and measured after 60 mins by ADP-glo kinase assay relative to control; settings: time 70.0 min
# HTM [5] = assay: Induction of F-actin depolymerization in human HTM cells at 5 uM incubated for 4 hrs by rhodamine-phalloidin staining based analysis; assay type: cell-based
# HTM [6] = assay: Inhibition of TGF-beta2 induced collagen 1A expression in human HTM cells at 1 uM pretreated with compound for 2 hrs followed by TGF-beta2 induction and measured after 24 hrs; assay type: functional, cell-based; settings: time 26.0 hrs
# HTM [7] = assay: Inhibition of paxillin expression in human HTM cells at 5 uM; assay type: functional, cell-based
# HTM [8] = assay: Inhibition of H2O2-induced ROS production in human HTM cells assessed as decrease in green fluorescence at 1 uM preincubated for 1 hrs followed by H2O2 induction for 2 hrs and measured after 30 mins by DCFH-DA based fluorescence microscopic analysis; assay type: functional, cell-based; settings: time 3.5 hrs
# HTM [9] = assay: Induction of morphological changes in human HTM cells at 3 uM incubated for 10 hrs by light microscopic analysis; assay type: functional, cell-based
# Mitochondrial membrane = assay: Induction of mitochondrial membrane potential in human HTM cells at 1 uM incubated for 24 hrs by JC-1 staining based flow cytometry analysis
# [10] = Induction of apoptosis in H2O2-induced human HTM cells at 1 uM pretreated with compound for 1 hr followed by H2O2 induction and measured after 2 hrs by Annexin V AF647/PI staining based flow cytometry analysis (reference value: 13.47%); assay type: functional; settings: time 3 hrs
# HTM [11] = assay: Inhibition of TGF-beta2 induced alpha-SMA expression in human HTM cells at 1 uM pretreated with compound for 2 hrs followed by TGF-beta2 induction and measured after 24 hrs; assay type: functional, cell-based; settings: time 26.0 hrs
# Chain of Rho-associated protein kinase 2 (O75116 whole entry): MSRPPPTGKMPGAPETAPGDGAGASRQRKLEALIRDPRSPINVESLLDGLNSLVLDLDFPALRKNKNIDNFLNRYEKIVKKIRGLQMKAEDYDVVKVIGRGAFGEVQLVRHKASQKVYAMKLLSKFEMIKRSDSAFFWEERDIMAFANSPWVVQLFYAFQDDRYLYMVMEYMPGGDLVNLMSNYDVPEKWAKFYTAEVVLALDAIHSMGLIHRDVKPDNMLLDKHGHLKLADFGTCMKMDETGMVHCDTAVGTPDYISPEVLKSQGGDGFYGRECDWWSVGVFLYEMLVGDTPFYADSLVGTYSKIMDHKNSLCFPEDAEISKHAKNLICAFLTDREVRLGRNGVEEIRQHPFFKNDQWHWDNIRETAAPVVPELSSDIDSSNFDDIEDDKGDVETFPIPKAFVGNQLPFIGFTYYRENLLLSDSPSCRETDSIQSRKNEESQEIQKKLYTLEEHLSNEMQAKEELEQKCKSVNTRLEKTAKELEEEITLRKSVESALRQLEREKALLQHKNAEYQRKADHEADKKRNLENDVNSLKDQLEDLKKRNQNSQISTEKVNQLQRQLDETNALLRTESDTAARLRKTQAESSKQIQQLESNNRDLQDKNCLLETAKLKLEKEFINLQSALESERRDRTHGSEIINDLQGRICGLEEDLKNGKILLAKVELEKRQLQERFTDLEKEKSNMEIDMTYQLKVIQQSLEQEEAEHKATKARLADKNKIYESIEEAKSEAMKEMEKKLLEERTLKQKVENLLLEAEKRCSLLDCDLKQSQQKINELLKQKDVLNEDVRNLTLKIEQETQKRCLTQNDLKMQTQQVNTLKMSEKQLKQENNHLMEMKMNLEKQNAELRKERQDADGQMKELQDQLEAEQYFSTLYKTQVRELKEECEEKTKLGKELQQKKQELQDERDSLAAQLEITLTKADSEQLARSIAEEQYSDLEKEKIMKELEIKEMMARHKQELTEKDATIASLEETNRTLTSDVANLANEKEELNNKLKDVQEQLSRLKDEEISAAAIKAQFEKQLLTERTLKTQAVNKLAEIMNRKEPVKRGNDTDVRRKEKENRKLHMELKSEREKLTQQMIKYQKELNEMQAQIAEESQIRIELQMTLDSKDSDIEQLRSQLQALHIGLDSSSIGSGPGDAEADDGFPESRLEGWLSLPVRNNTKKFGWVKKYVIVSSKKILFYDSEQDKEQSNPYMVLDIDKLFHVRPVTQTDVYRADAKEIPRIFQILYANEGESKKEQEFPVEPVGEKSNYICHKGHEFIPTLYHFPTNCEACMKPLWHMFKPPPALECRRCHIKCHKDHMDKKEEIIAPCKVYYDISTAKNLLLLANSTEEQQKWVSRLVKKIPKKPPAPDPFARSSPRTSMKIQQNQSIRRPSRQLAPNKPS
# Chain of MAP kinase-interacting serine/threonine-protein kinase 1 (Q9BUB5 whole entry, looked up): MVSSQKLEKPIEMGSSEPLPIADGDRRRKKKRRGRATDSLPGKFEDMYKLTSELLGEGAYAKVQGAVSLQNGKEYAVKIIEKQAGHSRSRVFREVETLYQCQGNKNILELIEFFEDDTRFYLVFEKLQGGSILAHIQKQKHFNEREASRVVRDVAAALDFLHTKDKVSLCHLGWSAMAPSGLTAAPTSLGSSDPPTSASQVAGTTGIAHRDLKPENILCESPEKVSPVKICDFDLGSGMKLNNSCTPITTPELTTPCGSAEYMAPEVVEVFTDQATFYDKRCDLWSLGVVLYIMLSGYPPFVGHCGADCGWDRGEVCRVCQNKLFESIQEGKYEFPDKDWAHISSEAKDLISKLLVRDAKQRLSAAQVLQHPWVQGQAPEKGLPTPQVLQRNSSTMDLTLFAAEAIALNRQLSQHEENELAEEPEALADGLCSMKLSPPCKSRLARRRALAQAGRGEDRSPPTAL
# Chain of Rho-associated protein kinase 1 (Q13464 whole entry): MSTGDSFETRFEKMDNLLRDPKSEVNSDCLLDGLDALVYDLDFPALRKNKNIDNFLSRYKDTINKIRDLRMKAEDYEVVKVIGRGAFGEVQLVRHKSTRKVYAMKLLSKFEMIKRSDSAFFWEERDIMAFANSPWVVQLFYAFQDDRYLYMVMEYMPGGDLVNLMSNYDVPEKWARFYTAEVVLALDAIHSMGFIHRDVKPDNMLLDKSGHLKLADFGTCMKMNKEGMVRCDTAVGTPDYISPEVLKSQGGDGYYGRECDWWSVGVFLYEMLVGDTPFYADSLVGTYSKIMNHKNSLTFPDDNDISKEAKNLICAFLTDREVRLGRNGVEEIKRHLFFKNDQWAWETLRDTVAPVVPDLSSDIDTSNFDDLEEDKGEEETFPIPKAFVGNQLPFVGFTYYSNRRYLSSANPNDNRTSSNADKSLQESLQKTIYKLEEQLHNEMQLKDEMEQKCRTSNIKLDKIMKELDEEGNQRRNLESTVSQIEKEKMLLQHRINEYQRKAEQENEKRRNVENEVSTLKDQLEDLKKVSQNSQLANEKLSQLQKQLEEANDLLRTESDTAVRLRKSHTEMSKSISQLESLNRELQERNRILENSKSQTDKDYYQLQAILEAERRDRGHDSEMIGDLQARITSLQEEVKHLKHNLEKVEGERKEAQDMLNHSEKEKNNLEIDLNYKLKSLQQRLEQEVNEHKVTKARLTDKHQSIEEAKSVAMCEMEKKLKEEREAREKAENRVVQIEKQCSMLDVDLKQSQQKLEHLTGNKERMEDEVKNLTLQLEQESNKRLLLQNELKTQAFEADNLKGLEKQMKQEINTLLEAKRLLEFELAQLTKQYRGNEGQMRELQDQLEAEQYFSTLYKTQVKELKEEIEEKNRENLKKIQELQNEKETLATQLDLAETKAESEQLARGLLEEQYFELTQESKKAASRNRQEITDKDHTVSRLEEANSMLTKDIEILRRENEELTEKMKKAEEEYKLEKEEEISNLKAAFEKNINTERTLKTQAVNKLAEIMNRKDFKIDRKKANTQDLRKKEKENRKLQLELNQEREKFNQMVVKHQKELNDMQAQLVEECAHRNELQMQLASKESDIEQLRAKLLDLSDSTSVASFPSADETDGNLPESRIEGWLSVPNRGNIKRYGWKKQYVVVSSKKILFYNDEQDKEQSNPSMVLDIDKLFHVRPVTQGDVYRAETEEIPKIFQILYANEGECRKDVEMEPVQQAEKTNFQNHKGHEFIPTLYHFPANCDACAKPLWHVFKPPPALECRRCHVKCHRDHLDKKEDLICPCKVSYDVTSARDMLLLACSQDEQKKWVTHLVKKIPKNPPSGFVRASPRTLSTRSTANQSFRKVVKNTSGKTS
# Chain of MAP kinase-interacting serine/threonine-protein kinase 2 (Homo sapiens) (Q9HBH9 whole entry, looked up): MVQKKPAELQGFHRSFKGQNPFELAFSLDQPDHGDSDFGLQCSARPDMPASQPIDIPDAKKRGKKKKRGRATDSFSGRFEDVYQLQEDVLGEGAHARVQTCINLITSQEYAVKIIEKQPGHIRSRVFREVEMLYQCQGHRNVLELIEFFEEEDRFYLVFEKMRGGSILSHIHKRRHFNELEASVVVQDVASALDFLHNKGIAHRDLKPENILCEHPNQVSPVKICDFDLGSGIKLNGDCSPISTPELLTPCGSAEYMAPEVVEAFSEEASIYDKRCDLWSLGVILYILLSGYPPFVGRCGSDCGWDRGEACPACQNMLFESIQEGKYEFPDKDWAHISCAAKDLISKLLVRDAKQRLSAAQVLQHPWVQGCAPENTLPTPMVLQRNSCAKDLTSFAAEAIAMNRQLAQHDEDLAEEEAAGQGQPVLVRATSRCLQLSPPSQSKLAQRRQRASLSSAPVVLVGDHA
Structure (SMILES),inhibition [1] [%],IC50 [2] [nM],IC50 [3] [nM],inhibition [4] [%],also measured
O=C(C1CCCCC1)N1CCC(c2cc(-c3ccnc4[nH]ccc34)[nH]n2)CC1,14.6,2110,1720,20.8,
CCS(=O)(=O)N1CCC(c2cc(-c3ccnc4[nH]ccc34)[nH]n2)CC1,22.4,158,286,16,
O=C(c1ccc(F)c(F)c1)N1CCC(c2cc(-c3ccnc4[nH]ccc34)[nH]n2)CC1,53.3,907,699,67.2,
CC(=O)c1cccc(CN2CCC(c3cc(-c4ccnc5[nH]ccc45)[nH]n3)CC2)c1,89,823,895,69.2,
COc1cc(C(=O)N2CCC(c3cc(-c4ccnc5[nH]ccc45)[nH]n3)CC2)cc(OC)c1OC,74.4,1450,1490,60.8,
CC(=O)N1CCC(c2cc(-c3ccnc4[nH]ccc34)[nH]n2)CC1,58,980,1220,41.8,
FC(F)(F)c1cccc(CN2CCC(c3cc(-c4ccnc5[nH]ccc45)[nH]n3)CC2)c1,57.2,969,1180,50.9,
COc1cccc(C(=O)N2CCC(c3cc(-c4ccnc5[nH]ccc45)[nH]n3)CC2)c1,34.3,577,805,52.5,
CC(=O)c1ccc(C(=O)N2CCC(c3cc(-c4ccnc5[nH]ccc45)[nH]n3)CC2)cc1,60.9,468,512,71.7,
O=C(c1cccc(F)c1)N1CCC(c2cc(-c3ccnc4[nH]ccc34)[nH]n2)CC1,52.1,542,842,66.6,
O=C(c1ccc(C(F)(F)F)cc1)N1CCC(c2cc(-c3ccnc4[nH]ccc34)[nH]n2)CC1,57.4,939,1160,81.3,
COC(=O)c1ccc(C(=O)N2CCC(c3cc(-c4ccnc5[nH]ccc45)[nH]n3)CC2)cc1,53.4,401,777,77.1,
O=C(C1CCC1)N1CCC(c2cc(-c3ccnc4[nH]ccc34)[nH]n2)CC1,42.3,1050,846,39.9,
Cc1ccc(C(=O)N2CCC(c3cc(-c4ccnc5[nH]ccc45)[nH]n3)CC2)cc1,52.2,484,773,74.4,
Cc1ccc(CN2CCC(c3cc(-c4ccnc5[nH]ccc45)[nH]n3)CC2)cc1,82.2,> 5000,> 5000,76,
C[C@H]1CNCCCN1S(=O)(=O)c1cccc2cncc(F)c12,,,,,Activity (HTM [5]): Active; inhibition (HTM [6]): Active; inhibition (HTM [7]): inactive; inhibition (HTM [8]): Active; Activity (HTM [9]): Active; Activity (Mitochondrial membrane): inactive; Activity [10]: 39.46%; inhibition (HTM [11]): Active
O=C(C1CCCC1)N1CCC(c2cc(-c3ccnc4[nH]ccc34)[nH]n2)CC1,44.4,3880,1980,47.5,
O=S(=O)(C1CC1)N1CCC(c2cc(-c3ccnc4[nH]ccc34)[nH]n2)CC1,73.4,1070,489,63.6,
Fc1ccc(CN2CCC(c3cc(-c4ccnc5[nH]ccc45)[nH]n3)CC2)cc1F,78.8,295,425,71.1,
O=C(C1CC1)N1CCC(c2cc(-c3ccnc4[nH]ccc34)[nH]n2)CC1,42.5,1070,1010,40.9,

Structure (SMILES),inhibition [1] [%],IC50 [2] [nM],IC50 [3] [nM],inhibition [4] [%],also measured
O=C(c1ccc(F)cc1)N1CCC(c2cc(-c3ccnc4[nH]ccc34)[nH]n2)CC1,47.4,833,821,61.1,
O=C(Cc1ccccc1)N1CCC(c2cc(-c3ccnc4[nH]ccc34)[nH]n2)CC1,72.2,433,432,49.7,
Cc1cccc(CN2CCC(c3cc(-c4ccnc5[nH]ccc45)[nH]n3)CC2)c1,79.9,> 5000,> 5000,71.4,
N#CCN1CCC(c2cc(-c3ccnc4[nH]ccc34)[nH]n2)CC1,84.4,130,261,71.4,
COC(=O)c1cccc(CN2CCC(c3cc(-c4ccnc5[nH]ccc45)[nH]n3)CC2)c1,70.9,390,570,61.6,
COc1ccc(CN2CCC(c3cc(-c4ccnc5[nH]ccc45)[nH]n3)CC2)cc1OC,66.1,150,241,65.2,
COc1ccc(CN2CCC(c3cc(-c4ccnc5[nH]ccc45)[nH]n3)CC2)cc1,67.4,118,183,61.5,
COc1ccc(CC(=O)N2CCC(c3cc(-c4ccnc5[nH]ccc45)[nH]n3)CC2)cc1,4.2,486,813,8.8,
COc1cccc(CC(=O)N2CCC(c3cc(-c4ccnc5[nH]ccc45)[nH]n3)CC2)c1,62.7,305,350,41.6,
Cc1ccc(S(=O)(=O)N2CCC(c3cc(-c4ccnc5[nH]ccc45)[nH]n3)CC2)cc1,6.9,> 10000,> 10000,6.4,
O=S(=O)(F)N1CCC(c2cc(-c3ccnc4[nH]ccc34)[nH]n2)CC1,86.7,329,229,68.3,
Fc1cccc(CN2CCC(c3cc(-c4ccnc5[nH]ccc45)[nH]n3)CC2)c1,76.8,338,295,69.9,
O=C(c1ccc(Cl)cc1)N1CCC(c2cc(-c3ccnc4[nH]ccc34)[nH]n2)CC1,58.4,369,899,82.2,
c1ccc(CN2CCC(c3cc(-c4ccnc5[nH]ccc45)[nH]n3)CC2)cc1,82.4,172,197,73.2,
C=CC(=O)N1CCC(c2cc(-c3ccnc4[nH]ccc34)[nH]n2)CC1,61,553,791,56,
COc1ccc(C(=O)N2CCC(c3cc(-c4ccnc5[nH]ccc45)[nH]n3)CC2)cc1,54.7,492,829,75.3,
c1ccc(Oc2cccc(CN3CCC(c4cc(-c5ccnc6[nH]ccc56)[nH]n4)CC3)c2)cc1,73.5,1060,1340,68.1,
O=C(CC1CC1)N1CCC(c2cc(-c3ccnc4[nH]ccc34)[nH]n2)CC1,46.5,787,1180,39.3,
COc1ccc(C(=O)N2CCC(c3cc(-c4ccnc5[nH]ccc45)[nH]n3)CC2)cc1OC,59.7,362,696,73,
O=C(c1ccc([N+](=O)[O-])cc1)N1CCC(c2cc(-c3ccnc4[nH]ccc34)[nH]n2)CC1,63.5,699,823,78.6,
